The record followed here is US20180064742A1, “PET IMAGING TRACER FOR IMAGING PROSTATE CANCER” (THE REGENTS OF THE UNIVERSITY OF CALIFORNIA, priority 2015, published 2018).

For this test, the system named is tumors. Nature of the test: In vivo accumulation in tumors versus benign tissue, with tumor alkalinization models. From the text: Solid tumors are hypoxic with altered metabolism, resulting in secretion of acids into the extracellular matrix and lower relative pH, a feature associated with local invasion and metastasis. Therapeutic and diagnostic agents responsive to this microenvironment may improve tumor-specific delivery. In various embodiments, the invention reflects a general strategy whereby caged small-molecule drugs or imaging agents liberate their parent compounds in regions of low interstitial pH. In this manuscript, we present a new acid-labile prodrug method based on the glycosylamine linkage, and its application to a class of positron emission tomography (PET) imaging tracers, termed [^18F] fluorodeoxyglycosyl amines ([^18F] FDG amines). [^18F]FDG amines operate via a proposed two-step mechanism, in which an acid-labile precursor decomposes to form a common radiotracer, e.g., 2-deoxy-2-[18F]fluoro-D-glucose, which is subsequently accumulated by glycan, e.g., glucose, avid cells. […]
Imaging was performed using standard micro-positron emission tomography (microPET) techniques and data analysis. […] The resulting images are analyzed using open source Amide software (FIGS. 6, 13). For quantification of uptake in tissues, regions of interest (ROI) are drawn over tissues using the CT portion of the exam. […]

As for `OC[C@H]1OC(NCc2ccc(-c3ccccc3)cc2)[C@H]([18F])[C@@H](O)[C@@H]1O` (some centres unmarked), the “relative accumulation in tumors over benign tissue” value (in vivo) is on record as “greater relative accumulation in tumors over benign tissue”. Moreover, the “effect of tumor alkalinization on tumor accumulation” value (sodium bicarbonate treatment, or overexpression of carbonic anhydrase) is reported as “could be attenuated upon tumor alkalinization”.
